Tests used:
[1] = tested on: Tyrosine-protein kinase ABL1 (Homo sapiens), P00519 [F317I]; assay: Binding affinity to human phosphorylated ABL1 F317I mutant (S229 to K512 residues) expressed in mammalian expression system assessed as residual binding level at 10 uM by Kinomescan method relative to control
[2] = tested on: Tyrosine-protein kinase ABL1 (Homo sapiens), P00519 [F317L]; assay: Binding affinity to human non-phosphorylated ABL1 F317L mutant (S229 to K512 residues) expressed in mammalian expression system assessed as residual binding level at 10 uM by Kinomescan method relative to control
[3] = tested on: Tyrosine-protein kinase ABL1 (Homo sapiens), P00519 [T315I]; assay: Binding affinity to human phosphorylated ABL1 T315I mutant (S229 to K512 residues) expressed in mammalian expression system assessed as residual binding level at 10 uM by Kinomescan method relative to control
[4] = tested on: Tyrosine-protein kinase ABL1 (Homo sapiens), P00519 [Y253F]; assay: Binding affinity to human phosphorylated ABL1 Y253F mutant (S229 to K512 residues) expressed in mammalian expression system assessed as residual binding level at 10 uM by Kinomescan method relative to control
[5] = molecular target: Serine/threonine-protein kinase B-raf (Homo sapiens) (UniProt P15056); assay: Binding affinity to wild-type human partial length BRAF (S429 to E741 residues) expressed in mammalian expression system assessed as residual binding level at 10 uM by Kinomescan method relative to control
[6] = molecular target: Serine/threonine-protein kinase BRSK1 (Homo sapiens) (UniProt Q8TDC3); assay: Binding affinity to wild-type human partial length BRSK1 (M1 to E754 residues) expressed in bacterial expression system assessed as residual binding level at 10 uM by Kinomescan method relative to control
[7] = molecular target: Calcium/calmodulin-dependent protein kinase type II subunit gamma (Homo sapiens) (UniProt Q13555); assay: Binding affinity to wild-type human partial length CAMK2G (R9 to A303 residues) expressed in bacterial expression system assessed as residual binding level at 10 uM by Kinomescan method relative to control
[8] = molecular target: Calcium/calmodulin-dependent protein kinase type IV (Homo sapiens) (UniProt Q16566); assay: Binding affinity to wild-type human partial length CAMK4 (A22 to A322 residues) expressed in bacterial expression system assessed as residual binding level at 10 uM by Kinomescan method relative to control
[9] = molecular target: Cyclin-dependent kinase 19 (Homo sapiens) (UniProt Q9BWU1); assay: Binding affinity to wild-type human partial length CDK11 (M1 to N360 residues) expressed in bacterial expression system assessed as residual binding level at 10 uM by Kinomescan method relative to control
[10] = molecular target: Citron Rho-interacting kinase (Homo sapiens) (UniProt O14578); assay: Binding affinity to wild-type human partial length CIT (M68 to E432 residues) expressed in bacterial expression system assessed as residual binding level at 10 uM by Kinomescan method relative to control
[11] = molecular target: Casein kinase I isoform alpha (Homo sapiens) (UniProt P48729); assay: Binding affinity to wild-type human partial length CSNK1A1 (M1 to L450 residues) expressed in mammalian expression system assessed as residual binding level at 10 uM by Kinomescan method relative to control
[12] = molecular target: Casein kinase I isoform gamma-1 (Homo sapiens) (UniProt Q9HCP0); assay: Binding affinity to wild-type human partial length CSNK1G1 (T15 to S353 residues) expressed in bacterial expression system assessed as residual binding level at 10 uM by Kinomescan method relative to control
[13] = tested on: Epidermal growth factor receptor (Homo sapiens), P00533 [UNDEFINED MUTATION]; assay: Binding affinity to human partial length EGFR E746-A750del mutant expressed in bacterial expression system assessed as residual binding level at 10 uM by Kinomescan method relative to control
[14] = molecular target: Mitogen-activated protein kinase 4 (Homo sapiens) (UniProt P31152); assay: Binding affinity to wild-type human partial length ERK4 (M1 to L365 residues) expressed in bacterial expression system assessed as residual binding level at 10 uM by Kinomescan method relative to control
[15] = molecular target: Serine/threonine-protein kinase/endoribonuclease IRE1 (Homo sapiens) (UniProt O75460); assay: Binding affinity to wild-type human partial length ERN1 (S551 to E852 residues) expressed in mammalian expression system assessed as residual binding level at 10 uM by Kinomescan method relative to control
[16] = molecular target: Fibroblast growth factor receptor 1 (Homo sapiens) (UniProt P11362); assay: Binding affinity to wild-type human partial length FGFR1 (P357 to V669 residues) expressed in bacterial expression system assessed as residual binding level at 10 uM by Kinomescan method relative to control
[17] = tested on: eIF-2-alpha kinase GCN2 (Homo sapiens), Q9P2K8 [S808G]; assay: Binding affinity to wild-type human partial length GCN2 kinase domain 2 (R585 to T1018 residues) S808G mutant expressed in bacterial expression system assessed as residual binding level at 10 uM by Kinomescan method relative to control
[18] = molecular target: Tyrosine-protein kinase JAK1 (Homo sapiens) (UniProt P23458); assay: Binding affinity to wild-type human partial length JAK1 JH1 catalytic domain (V856 to K1154 residues) expressed in bacterial expression system assessed as residual binding level at 10 uM by Kinomescan method relative to control
[19] = molecular target: Serine/threonine-protein kinase Nek4 (Homo sapiens) (UniProt P51957); assay: Binding affinity to wild-type human full length NEK4 (M1 to F841 residues) expressed in mammalian expression system assessed as residual binding level at 10 uM by Kinomescan method relative to control
[20] = molecular target: Serine/threonine-protein kinase D1 (Homo sapiens) (UniProt Q15139); assay: Binding affinity to wild-type human partial length PRKD1 (G551 to E870 residues) expressed in bacterial expression system assessed as residual binding level at 10 uM by Kinomescan method relative to control
[21] = molecular target: cGMP-dependent protein kinase 2 (Homo sapiens) (UniProt Q13237); assay: Binding affinity to wild-type human partial length PRKG2 (S422 to F762 residues) expressed in mammalian expression system assessed as residual binding level at 10 uM by Kinomescan method relative to control
[22] = molecular target: Ribosomal protein S6 kinase alpha-1 (Homo sapiens) (UniProt Q15418); assay: Binding affinity to wild-type human partial length C- terminal RSK1 kinase domain 2 (P360 to L681 residues) expressed in bacterial expression system assessed as residual binding level at 10 uM by Kinomescan method relative to control
[23] = molecular target: Ribosomal protein S6 kinase alpha-6 (Homo sapiens) (UniProt Q9UK32); assay: Binding affinity to wild-type human partial length C-terminal RSK4 kinase domain 2 (I401 to Y711 residues) expressed in bacterial expression system assessed as residual binding level at 10 uM by Kinomescan method relative to control
[24] = molecular target: Serine/threonine-protein kinase TBK1 (Homo sapiens) (UniProt Q9UHD2); assay: Binding affinity to wild-type human full length TBK1 (M1 to L729 residues) expressed in mammalian expression system assessed as residual binding level at 10 uM by Kinomescan method relative to control
Sequence of Serine/threonine-protein kinase TBK1 (Homo sapiens) (Q9UHD2 whole entry, the tested form may be a part): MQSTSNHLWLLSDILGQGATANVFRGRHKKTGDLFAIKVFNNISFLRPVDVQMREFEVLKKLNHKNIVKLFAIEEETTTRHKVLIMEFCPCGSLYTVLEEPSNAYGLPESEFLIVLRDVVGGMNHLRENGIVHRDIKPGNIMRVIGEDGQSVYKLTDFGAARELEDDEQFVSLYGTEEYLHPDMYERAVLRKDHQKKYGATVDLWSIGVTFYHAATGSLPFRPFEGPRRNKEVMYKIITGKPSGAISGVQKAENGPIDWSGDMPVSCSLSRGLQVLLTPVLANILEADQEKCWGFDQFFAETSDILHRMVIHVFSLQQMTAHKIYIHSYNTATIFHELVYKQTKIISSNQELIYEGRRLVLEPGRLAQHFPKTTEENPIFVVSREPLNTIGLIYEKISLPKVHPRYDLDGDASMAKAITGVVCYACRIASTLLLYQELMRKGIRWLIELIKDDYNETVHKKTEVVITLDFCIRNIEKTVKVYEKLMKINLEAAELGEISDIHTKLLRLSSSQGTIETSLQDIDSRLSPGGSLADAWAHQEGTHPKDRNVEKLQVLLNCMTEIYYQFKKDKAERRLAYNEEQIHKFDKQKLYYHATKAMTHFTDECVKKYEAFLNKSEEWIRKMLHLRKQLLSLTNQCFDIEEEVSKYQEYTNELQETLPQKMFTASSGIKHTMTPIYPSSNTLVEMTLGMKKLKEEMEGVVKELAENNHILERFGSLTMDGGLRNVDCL

Sequence of Citron Rho-interacting kinase (Homo sapiens) (O14578 whole entry, the tested form may be a part, canonical isoform): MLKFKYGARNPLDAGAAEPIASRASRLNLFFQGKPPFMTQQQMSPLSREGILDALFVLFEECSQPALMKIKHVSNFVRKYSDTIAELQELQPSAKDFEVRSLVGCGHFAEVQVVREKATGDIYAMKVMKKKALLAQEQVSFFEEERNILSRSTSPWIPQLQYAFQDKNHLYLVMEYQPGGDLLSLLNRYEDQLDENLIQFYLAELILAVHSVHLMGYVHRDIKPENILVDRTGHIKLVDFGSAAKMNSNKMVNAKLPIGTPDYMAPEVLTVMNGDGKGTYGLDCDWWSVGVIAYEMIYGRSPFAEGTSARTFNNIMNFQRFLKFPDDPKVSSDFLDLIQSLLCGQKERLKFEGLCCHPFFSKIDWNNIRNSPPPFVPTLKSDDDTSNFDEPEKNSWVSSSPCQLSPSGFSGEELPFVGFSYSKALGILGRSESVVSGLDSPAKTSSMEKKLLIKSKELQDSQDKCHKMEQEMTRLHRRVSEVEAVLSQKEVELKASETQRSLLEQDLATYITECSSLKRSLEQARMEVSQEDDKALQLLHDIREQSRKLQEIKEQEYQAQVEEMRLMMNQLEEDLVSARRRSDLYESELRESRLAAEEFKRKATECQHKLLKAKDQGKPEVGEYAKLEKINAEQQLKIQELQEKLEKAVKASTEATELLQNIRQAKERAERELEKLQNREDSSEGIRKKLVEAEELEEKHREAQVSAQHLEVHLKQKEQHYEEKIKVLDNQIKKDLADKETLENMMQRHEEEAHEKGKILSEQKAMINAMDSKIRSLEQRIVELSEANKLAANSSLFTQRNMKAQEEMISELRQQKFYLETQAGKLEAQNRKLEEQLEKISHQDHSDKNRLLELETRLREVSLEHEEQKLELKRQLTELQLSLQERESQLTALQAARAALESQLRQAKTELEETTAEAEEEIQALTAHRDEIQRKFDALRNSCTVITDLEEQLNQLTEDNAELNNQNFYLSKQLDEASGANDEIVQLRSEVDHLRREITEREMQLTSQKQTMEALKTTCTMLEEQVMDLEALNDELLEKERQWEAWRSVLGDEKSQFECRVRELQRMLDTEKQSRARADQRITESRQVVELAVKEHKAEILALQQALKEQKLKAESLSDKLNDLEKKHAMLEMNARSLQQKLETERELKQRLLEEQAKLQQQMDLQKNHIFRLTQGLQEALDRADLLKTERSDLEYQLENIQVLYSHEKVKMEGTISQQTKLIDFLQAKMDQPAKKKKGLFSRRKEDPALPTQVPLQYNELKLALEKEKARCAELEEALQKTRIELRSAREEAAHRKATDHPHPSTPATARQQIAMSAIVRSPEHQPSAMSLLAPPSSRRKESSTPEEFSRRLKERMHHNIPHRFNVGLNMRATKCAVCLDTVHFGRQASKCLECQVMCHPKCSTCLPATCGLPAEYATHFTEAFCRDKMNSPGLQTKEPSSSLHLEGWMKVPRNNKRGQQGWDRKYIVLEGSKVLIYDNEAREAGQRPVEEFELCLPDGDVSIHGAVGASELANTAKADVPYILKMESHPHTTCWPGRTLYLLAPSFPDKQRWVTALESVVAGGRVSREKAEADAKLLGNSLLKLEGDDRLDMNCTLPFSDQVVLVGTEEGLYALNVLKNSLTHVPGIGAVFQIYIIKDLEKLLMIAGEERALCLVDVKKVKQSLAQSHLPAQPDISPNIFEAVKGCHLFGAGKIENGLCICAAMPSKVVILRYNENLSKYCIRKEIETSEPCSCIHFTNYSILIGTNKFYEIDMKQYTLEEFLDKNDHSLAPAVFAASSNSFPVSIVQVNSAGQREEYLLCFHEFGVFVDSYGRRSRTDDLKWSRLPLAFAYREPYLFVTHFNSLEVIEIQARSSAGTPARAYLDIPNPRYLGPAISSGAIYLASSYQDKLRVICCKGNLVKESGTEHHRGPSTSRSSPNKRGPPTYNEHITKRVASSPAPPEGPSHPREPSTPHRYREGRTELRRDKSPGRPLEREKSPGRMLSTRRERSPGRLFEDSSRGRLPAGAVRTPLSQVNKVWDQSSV
Sequence of Mitogen-activated protein kinase 4 (Homo sapiens) (P31152 whole entry, the tested form may be a part): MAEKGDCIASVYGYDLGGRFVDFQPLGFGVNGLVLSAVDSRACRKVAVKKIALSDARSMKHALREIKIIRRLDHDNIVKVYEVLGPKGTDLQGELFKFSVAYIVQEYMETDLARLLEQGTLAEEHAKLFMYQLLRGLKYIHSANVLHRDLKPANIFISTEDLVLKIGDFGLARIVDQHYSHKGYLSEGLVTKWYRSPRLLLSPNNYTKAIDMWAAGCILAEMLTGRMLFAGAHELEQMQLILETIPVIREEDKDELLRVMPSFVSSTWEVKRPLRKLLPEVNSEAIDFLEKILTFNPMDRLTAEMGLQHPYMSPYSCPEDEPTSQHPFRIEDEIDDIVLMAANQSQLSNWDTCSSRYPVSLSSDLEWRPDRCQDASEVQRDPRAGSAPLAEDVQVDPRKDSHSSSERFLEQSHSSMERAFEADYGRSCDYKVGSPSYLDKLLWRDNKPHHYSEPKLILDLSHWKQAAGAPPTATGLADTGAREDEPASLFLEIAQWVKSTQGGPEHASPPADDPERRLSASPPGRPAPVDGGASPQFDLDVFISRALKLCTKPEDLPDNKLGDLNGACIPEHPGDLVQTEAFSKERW
Sequence of Tyrosine-protein kinase JAK1 (Homo sapiens) (P23458 whole entry, the tested form may be a part): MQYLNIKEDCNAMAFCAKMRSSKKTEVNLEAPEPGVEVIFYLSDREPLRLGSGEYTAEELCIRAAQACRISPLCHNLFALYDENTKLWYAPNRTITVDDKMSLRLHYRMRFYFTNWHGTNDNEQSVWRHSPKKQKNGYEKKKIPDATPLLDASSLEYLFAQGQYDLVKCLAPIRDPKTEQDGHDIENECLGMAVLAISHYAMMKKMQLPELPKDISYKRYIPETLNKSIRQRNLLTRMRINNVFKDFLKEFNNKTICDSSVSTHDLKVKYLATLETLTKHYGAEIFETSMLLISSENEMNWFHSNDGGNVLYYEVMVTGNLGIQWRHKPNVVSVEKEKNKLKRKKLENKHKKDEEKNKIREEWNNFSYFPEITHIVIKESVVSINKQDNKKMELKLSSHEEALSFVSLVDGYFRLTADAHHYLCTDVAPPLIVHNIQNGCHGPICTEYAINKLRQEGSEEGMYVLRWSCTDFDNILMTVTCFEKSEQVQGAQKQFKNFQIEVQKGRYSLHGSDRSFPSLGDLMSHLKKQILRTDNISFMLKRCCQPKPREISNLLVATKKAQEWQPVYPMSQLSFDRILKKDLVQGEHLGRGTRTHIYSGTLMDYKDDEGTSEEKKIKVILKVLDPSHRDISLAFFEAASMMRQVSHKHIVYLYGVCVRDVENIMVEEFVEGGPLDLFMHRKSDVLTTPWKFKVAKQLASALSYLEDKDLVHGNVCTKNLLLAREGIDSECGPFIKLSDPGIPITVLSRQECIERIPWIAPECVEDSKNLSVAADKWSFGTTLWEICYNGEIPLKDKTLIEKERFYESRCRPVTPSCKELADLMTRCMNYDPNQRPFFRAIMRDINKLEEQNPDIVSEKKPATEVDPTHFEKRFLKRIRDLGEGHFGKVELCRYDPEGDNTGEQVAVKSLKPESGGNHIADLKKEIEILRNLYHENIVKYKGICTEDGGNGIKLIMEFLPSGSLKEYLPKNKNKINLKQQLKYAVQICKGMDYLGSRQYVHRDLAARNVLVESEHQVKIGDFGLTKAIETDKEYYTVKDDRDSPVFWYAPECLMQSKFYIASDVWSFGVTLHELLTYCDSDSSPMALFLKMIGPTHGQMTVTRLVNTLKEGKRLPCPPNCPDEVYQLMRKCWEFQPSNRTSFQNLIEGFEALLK
Sequence of Calcium/calmodulin-dependent protein kinase type IV (Homo sapiens) (Q16566 whole entry, the tested form may be a part): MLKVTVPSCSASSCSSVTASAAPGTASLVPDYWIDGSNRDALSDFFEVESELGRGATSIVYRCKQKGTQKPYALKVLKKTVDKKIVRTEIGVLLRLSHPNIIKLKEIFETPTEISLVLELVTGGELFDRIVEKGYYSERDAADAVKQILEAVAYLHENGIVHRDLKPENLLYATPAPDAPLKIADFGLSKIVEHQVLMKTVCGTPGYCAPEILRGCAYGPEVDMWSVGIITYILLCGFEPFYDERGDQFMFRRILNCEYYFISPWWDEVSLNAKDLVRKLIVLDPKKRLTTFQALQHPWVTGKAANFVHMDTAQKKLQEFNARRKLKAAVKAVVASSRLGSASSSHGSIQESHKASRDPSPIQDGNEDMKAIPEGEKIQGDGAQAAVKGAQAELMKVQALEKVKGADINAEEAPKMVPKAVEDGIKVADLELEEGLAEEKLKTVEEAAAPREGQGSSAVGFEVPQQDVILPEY

Question: With CC(C)N1C(=O)C(NCCCN(C)C)=C(c2cn(C)c3ccccc23)C1=O.Cl as the molecule, how does the Activity [1] read?
Answer: The Activity was 87%.

Question: What about the Activity [2] of the same molecule?
Answer: Its Activity is 84%.

Question: And the Activity [3]?
Answer: The Activity was 90%.

Question: And the Activity [4]?
Answer: Its Activity is 98%.

Question: What about the Activity [5] of the same molecule?
Answer: Its Activity is 89%.

Question: And the Activity [6]?
Answer: Its Activity is 85%.

Question: And the Activity [7]?
Answer: The Activity was 83%.

Question: And the Activity [8]?
Answer: Its Activity is 80%.

Question: And the Activity [9]?
Answer: Its Activity is 94%.

Question: And the Activity [10]?
Answer: The Activity was 84%.

Question: What about the Activity [11] of the same molecule?
Answer: The Activity was 88%.

Question: And the Activity [12]?
Answer: Its Activity is 89%.

Question: And the Activity [13]?
Answer: The Activity was 100%.

Question: What about the Activity [14] of the same molecule?
Answer: The Activity was 100%.

Question: What about the Activity [15] of the same molecule?
Answer: The Activity was 85%.

Question: And the Activity [16]?
Answer: The Activity was 84%.

Question: What about the Activity [17] of the same molecule?
Answer: The Activity was 100%.

Question: What about the Activity [18] of the same molecule?
Answer: The Activity was 89%.

Question: What about the Activity [19] of the same molecule?
Answer: Its Activity is 96%.

Question: What about the Activity [20] of the same molecule?
Answer: Its Activity is 96%.

Question: And the Activity [21]?
Answer: Its Activity is 88%.

Question: And the Activity [22]?
Answer: The Activity was 100%.

Question: And the Activity [23]?
Answer: The Activity was 100%.

Question: What about the Activity [24] of the same molecule?
Answer: The Activity was 73%.
